Experimental data published in US12037324B2, “Biarylmethyl heterocycles” (Université de Montréal, priority 2016, dated 2024).

Key:
hAT1R [1] = molecular target: T1, hAT1R (Homo sapiens, UniProt P30556); assay: cell-based; settings: section of the 42nd table ending at r951, example numbering restarts after the DiscoveRx section; read-out: β-arrestin2 EC50
T1 sequence (P30556 1-359): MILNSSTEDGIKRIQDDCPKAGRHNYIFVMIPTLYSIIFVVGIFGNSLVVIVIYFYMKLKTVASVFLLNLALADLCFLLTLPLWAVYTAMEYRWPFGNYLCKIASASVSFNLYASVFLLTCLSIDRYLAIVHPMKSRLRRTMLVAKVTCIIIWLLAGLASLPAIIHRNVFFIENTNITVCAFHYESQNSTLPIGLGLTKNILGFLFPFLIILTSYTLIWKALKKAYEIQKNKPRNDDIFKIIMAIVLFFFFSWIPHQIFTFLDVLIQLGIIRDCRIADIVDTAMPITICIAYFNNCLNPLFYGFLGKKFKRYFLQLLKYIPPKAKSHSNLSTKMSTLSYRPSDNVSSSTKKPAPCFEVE

hAT1R [2] = molecular target: T1, hAT1R; assay: cell-based; settings: agonist mode; for EC50: read-out: BRET P63 EC50
AGTR1 [3] = molecular target: T2, AGTR1 (Homo sapiens, UniProt P30556); assay: DiscoveRx IP1 accumulation assay (HTRF), agonist mode, Pathunter CHO-K1 AGTR1 β-arrestin cell line; type: cell-based; settings: for EC50: read-out: IP-1 EC50
T2 construct: host or cells: Pathunter CHO-K1 AGTR1 β-arrestin cell line (CHO-K1)
T2 sequence (P30556 1-359): T1 sequence (P30556 1-359)
Procedure, shortened: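 Agonist mode in CHO-K1 AGTR1 β-arrestin cells plated 14-16 h before; compounds at varying concentrations for 90 min at 37° C, IP1 accumulation read by HTRF (D2-conjugate and anti-IP1 cryptate, 20 min room temperature). EC50 from 4-parameter logistic fit; activity given as percentage of maximal AII effect.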

AGTR1 [4] = molecular target: T2, AGTR1; assay: DiscoveRx β-arrestin2 recruitment assay (enzyme complementation, Pathunter CHO-K1 AGTR1 β-arrestin cell line); type: cell-based; settings: DiscoveRx β-arrestin2 recruitment; for DiscoveRx β-arrestin2 Ymax (%): maximal response
Procedure, shortened: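 Chemiluminescent enzyme-complementation read-out of β-arrestin2 recruitment to AGTR1 in engineered CHO-K1 cells after 90 min compound exposure at 37° C. Values are 4-parameter logistic EC50s in agonist mode, IC50s in antagonist mode, with efficacy relative to the maximal All response.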

hAT1R [5] = molecular target: T1, hAT1R; assay: BRET β-arrestin2 biosensor assay, higher receptor expression (hAT1R 5 ng/well), HEK293 cells; type: cell-based; settings: for EC50: High AT1R Expression

Row | Compound | EC50 (hAT1R [1]) | BRET P63 Ymax (hAT1R [2]) | EC50 (hAT1R [2]) | IP-1 Ymax (%) (AGTR1 [3]) | EC50 (AGTR1 [3]) | EC50 (AGTR1 [4]) | DiscoveRx β-arrestin2 Ymax (%) (AGTR1 [4]) | BRET β-Arrestin2 High AT1R Expression Ymax (%) (hAT1R [5]) | EC50 (hAT1R [5])
1 | CCc1nc2c(C)cc(C)nc2n1Cc1ccc(-c2cc(-c3ccccc3)ccc2-c2nnn[nH]2)cn1 [Example 179] | 61.4 nM | 11.6% | 52.3 nM | 12.2% | 81.7 nM | 40.7 nM | 58.3% | 90.6% | 20.7 nM
2 | CCc1nc2c(C)cc(C)nc2n1Cc1ccc(-c2cc(-c3ccc(CO)cc3)ccc2-c2nnn[nH]2)cn1 [Example 180] | 178 nM | 14.9% | 210 nM | 27.5% | 226 nM | 51.9 nM | 40.4% | 85.3% | 50.8 nM
3 | CCc1nc2c(C)cc(C)nc2n1Cc1ccc(-c2cc(-c3cc(C)cc(C)c3)ccc2C(=O)O)cc1 [Example 181, 4″-((2-ethyl-5,7-dimethyl-3H-imidazo[4,5-b]pyridin-3-yl)methyl)-3,5-dimethyl-[1,1′:3′,1″-terphenyl]-4′-carboxylic acid] | 15.7 nM | 16.1% | 47.5 nM | 6.1% | 78.4 nM | 48 nM | 88.8% | 94.1% | 4.8 nM
4 | CCc1nc2c(C)cc(C)nc2n1Cc1ccc(-c2cc(-c3ccc(CO)cc3)ccc2C(=O)O)cc1 [Example 183] | 138 nM | 13.2% | 179 nM | 14.1% | 200 nM | 66.2 nM | 36.2% | 90.0% | 62.9 nM
5 | CCc1nc2c(C)cc(C)nc2n1Cc1ncc(-c2cc(-c3ccccc3)ccc2-c2nnn[nH]2)cn1 [Example 190] | 154 nM | 16.4% | 432 nM | 17.5% | 485 nM | 138 nM | 57.0% | 88.8% | 83.6 nM
6 | CCc1nc2c(C)cc(C)nc2n1Cc1ccc(-c2cc(-c3cccc(C)c3)ccc2C(=O)O)cn1 [Example 195, 3-(6-((2-ethyl-5,7-dimethyl-3H-imidazo[4,5-b]pyridin-3-yl)methyl)pyridin-3-yl)-3′-methylbiphenyl-4-carboxylic acid] | 282 nM | 13.6% | 264 nM | 5.3% | 358 nM | 694 nM | 77.6% | 87.0% | 101 nM
7 | CCc1nc2c(C)cc(C)nc2n1Cc1ccc(-c2cc(-c3ccccc3)ccc2C(=O)O)cn1 [Example 196, 3-(6-((2-ethyl-5,7-dimethyl-3H-imidazo[4,5-b]pyridin-3-yl)methyl)pyridin-3-yl)-[1,1′-biphenyl]-4-carboxylic acid] | 1700 nM | 7.6% | 1100 nM | 12.1% | 869 nM | 3020 nM | 50.4% | 83.3% | 618 nM
8 | CCc1nc2c(C)cc(C)nc2n1Cc1ccc(-c2cc(Oc3ccccc3)ccc2-c2nnn[nH]2)cc1 [Example 204, 2-Ethyl-5,7-dimethyl-3-((5′-phenoxy-2′-(1H-tetrazol-5-yl)-[1, 1′-biphenyl]-4-yl)methyl)-3H-imidazo[4,5-b]pyridine] | 9.8 nM | 9.4% | 10.7 nM | 14.4% | 66.8 nM | 26.4 nM | 42.4% | 85.9% | 3.6 nM
9 | CCc1nc2c(C)cc(C)nc2n1Cc1ccc(-c2cc(Oc3ccccc3F)ccc2-c2nnn[nH]2)cc1 [Example 205, 2-Ethyl-3-((5′-(2-fluorophenoxy)-2′-(1H-tetrazol-5-yl)-[1,1′-biphenyl]-4-yl)methyl)-5,7-dimethyl-3H-imidazo[4,5-b]pyridine] | 21.3 nM | 20.2% | 18.4 nM | 16.7% | 70.2 nM | 31.8 nM | 42.2% | 92.1% | 4.8 nM
10 | CCc1nc2c(C)cc(C)nc2n1Cc1ccc(-c2cc(Oc3ccc(F)cc3F)ccc2-c2nnn[nH]2)cc1 [Example 208] | 26.4 nM | 17.4% | 13.3 nM | 19.9% | 106 nM | 20.8 nM | 44.8% | 103.1% | 6 nM
11 | CCc1nc2c(C)cc(C)nc2n1Cc1ccc(-c2cc(OC3CCCCC3)ccc2-c2nnn[nH]2)cc1 [Example 209, 3-((5′-(Cyclohexyloxy)-2′-(1H-tetrazol-5-yl)-[1,1′-biphenyl]-4-yl)methyl)-2-ethyl-5,7-dimethyl-3H-imidazo[4,5-b]pyridine] | 50 nM | 32.6% | 37.6 nM | 25.5% | 110 nM | 45.9 nM | 49.6% | 90.6% | 7.2 nM
12 | CCc1nc2c(C)cc(C)nc2n1Cc1ccc(-c2cc(Oc3ccccc3F)ccc2-c2noc(=O)[nH]2)cc1 [Example 214, 3-(4′-((2-Ethyl-5,7-dimethyl-3H-imidazo[4,5-b]pyridin-3-yl)methyl)-5-(2-fluorophenoxy)-[1,1′-biphenyl]-2-yl)-1,2,4-oxadiazol-5(4H)-one] | 15.9 nM | 43.3% | 35.6 nM | 50.0% | 89.6 nM | 76.1 nM | 74.1% | 86.5% | 4.2 nM
13 | CCc1nc2c(C)cc(C)nc2n1Cc1ccc(-c2cc(-n3cc(C4CC4)nn3)ccc2-c2nnn[nH]2)cc1 [Example 225, 3-((5′-(4-Cyclopropyl-1H-1,2,3-triazol-1-yl)-2′-(5H-tetrazol-5-yl)-[1,1′-biphenyl]-4-yl)methyl)-2-ethyl-5,7-dimethyl-3H-imidazo[4,5-b]pyridine] | 187 nM | 7.1% | 29.5 nM | 7.0% | 25.2 nM | 29 nM | 35.4% | 82.1% | 10.9 nM
14 | CCc1nc2c(C)cc(C)nc2n1Cc1ccc(-c2cc(-n3cc(C(C)C)nn3)ccc2-c2nnn[nH]2)cc1 [Example 227] | 31.4 nM | 19.9% | 30.4 nM | 9.8% | 268 nM | 32 nM | 51.6% | 87.8% | 7.4 nM
15 | CCCc1cn(-c2ccc(-c3nnn[nH]3)c(-c3ccc(Cn4c(CC)nc5c(C)cc(C)nc54)cc3)c2)nn1 [Example 228] | 210 nM | 11.4% | 125 nM | 13.0% | 147 nM | 30.4 nM | 32.1% | 93.1% | 31.9 nM
16 | CCc1nc2c(C)cc(C)nc2n1Cc1ccc(-c2cc(-n3cc(C4CCCC4)nn3)ccc2-c2nnn[nH]2)cc1 [Example 230] | 140 nM | – | > 100000 nM | 12.7% | 340 nM | 63.1 nM | 16.7% | 53.5% | 61.2 nM
17 | CCc1nc2c(C)cc(C)nc2n1Cc1ccc(-c2cc(-c3cn(CC)nn3)ccc2-c2nnn[nH]2)cc1 [Example 234, 2-Ethyl-3-((5′-(1-ethyl-1H-1,2,3-triazol-4-yl)-2′-(1H-tetrazol-5-yl)-[1,1′-biphenyl]-4-yl)methyl)-5,7-dimethyl-3H-imidazo[4,5-b]pyridine] | 12.2 nM | 37.1% | 28.2 nM | 18.8% | 19.3 nM | 9.2 nM | 59.9% | 93.3% | 3.4 nM
